Measured values as given in patent publication US5008260A, “Cephem derivatives” (Eisai Co., Ltd., priority 1985, dated 1991).
≈ marks a conversion by molar mass, not a printed value.

Assays:
[1] = mouse, intravenous injection; prior-art compound; cited from earlier work
[2] = tested on: Serratia marcescens ES-75; experiment: Antibacterial activity (MIC), Serratia marcescens ES-75; format: cell-based; conditions: ES75
[3] = tested on: Pseudomonas maltophilia E04004; experiment: Antibacterial activity (MIC), Pseudomonas maltophilia E04004; format: cell-based; conditions: Stenotrophomonas maltophilia
[4] = tested on: Pseudomonas aeruginosa EP-01; experiment: Antibacterial activity (MIC), Pseudomonas aeruginosa EP-01; format: cell-based; conditions: EP01
[5] = tested on: Citrobacter freundii EC-34; experiment: Antibacterial activity (MIC), Citrobacter freundii EC-34; format: cell-based; conditions: EC34; Citrobacter freundii EC-34, lactamase producing bacteria
Escherichia coli NIHJ = experiment: Antibacterial activity (MIC), Escherichia coli NIHJ; format: cell-based
[6] = Acute toxicity LD50 (mouse, intravenous injection); conditions: in vivo
[7] = tested on: Staphylococcus aureus 209-P; experiment: Antibacterial activity (MIC), Staphylococcus aureus 209-P; format: cell-based
[8] = tested on: Staphylococcus aureus E31106; experiment: Antibacterial activity (MIC), Staphylococcus aureus E31106; format: cell-based; conditions: Staphylococcus aureus E31106, lactamase producing bacteria

SMILES | acute toxic value LD50 [1] | MIC [2] | MIC [3] | MIC [4] | MIC [5] | MIC (Escherichia coli NIHJ) | LD50 [6] | MIC [7] | MIC [8]
CO/N=C(\C(=O)N[C@@H]1C(=O)N2C(C(=O)[O-])=C(C[N+]34CCC(CC3)CC4)CS[C@H]12)c1csc(N)n1 [7β-[(Z)-2-(2-aminothiazol-4-yl)-2-methoxyiminoacetamido]-3-(1-quinuclidinio)methyl-3-cephem-4-carboxylate] | ≤ 100 mg/kg | – | – | – | – | – | – | – | –
CO/N=C(\C(=O)N[C@@H]1C(=O)N2C(C(=O)[O-])=C(C[N+]34CCC(O)(CC3)C4)CS[C@H]12)c1csc(N)n1 [Example 1, 7β-[(Z)-2-(2-Aminothiazol-4-yl)-2-methoxyiminoacetamido]-3-(4-hydroxy-1,4-methylene-1-piperidinio)methyl-3-cephem-4-carboxylate] | – | 0.1 µg/mL (≈ 0.197 µM) | 25 µg/mL (≈ 49.2 µM) | 1.56 µg/mL (≈ 3.07 µM) | 0.1 µg/mL (≈ 0.197 µM) | 0.05 µg/mL (≈ 0.0983 µM) | > 3000 mg/kg | 0.8 µg/mL (≈ 1.57 µM) | 100 µg/mL (≈ 197 µM)
CO/N=C(\C(=O)N[C@@H]1C(=O)N2C(C(=O)[O-])=C(C[N+]34CCC(O)(CC3)C4)CS[C@H]12)c1nsc(N)n1 [Example 2, 7β-[(Z)-2-(5-Amino-1,2,4-thiadiazol-3-yl)-2-methoxyiminoacetamido]-3-(4-hydroxy-1,4-methylene-1-piperidinio)methyl-3-cephem-4-carboxylate] | – | 0.2 µg/mL (≈ 0.392 µM) | 12.5 µg/mL (≈ 24.5 µM) | 0.8 µg/mL (≈ 1.57 µM) | 0.1 µg/mL (≈ 0.196 µM) | 0.1 µg/mL (≈ 0.196 µM) | > 3000 mg/kg | 0.8 µg/mL (≈ 1.57 µM) | 50 µg/mL (≈ 98.1 µM)
CO/N=C(\C(=O)N[C@@H]1C(=O)N2C(C(=O)[O-])=C(C[N+]34CCC(O)(CC3)CC4)CS[C@H]12)c1csc(N)n1 [Example 3, 7β-[(Z)-2-(2-Aminothiazol-4-yl)-2-methoxyiminoacetamido]-3-(4-hydroxy-1-quinuclidinio)methyl-3-cephem-4-carboxylate] | – | 0.1 µg/mL (≈ 0.191 µM) | 6.25 µg/mL (≈ 12 µM) | 1.56 µg/mL (≈ 2.99 µM) | 0.1 µg/mL (≈ 0.191 µM) | 0.05 µg/mL (≈ 0.0957 µM) | > 3000 mg/kg | 0.8 µg/mL (≈ 1.53 µM) | 100 µg/mL (≈ 191 µM)
CO/N=C(\C(=O)N[C@@H]1C(=O)N2C(C(=O)[O-])=C(C[N+]34CCC(O)(CC3)CC4)CS[C@H]12)c1nsc(N)n1 [Example 4, 7β-[(Z)-2-(5-Amino-1,2,4-thiadiazol-3-yl)-2-methoxyiminoacetamido]-3-(4-hydroxy-1-quinuclidinio)methyl-3-cephem-4-carboxylate] | – | 0.2 µg/mL (≈ 0.382 µM) | 6.25 µg/mL (≈ 11.9 µM) | 0.8 µg/mL (≈ 1.53 µM) | 0.1 µg/mL (≈ 0.191 µM) | 0.1 µg/mL (≈ 0.191 µM) | > 3000 mg/kg | 1.56 µg/mL (≈ 2.98 µM) | 25 µg/mL (≈ 47.7 µM)
CO/N=C(\C(=O)N[C@@H]1C(=O)N2C(C(=O)[O-])=C(C[N+]34CCC(C(N)=O)(CC3)CC4)CS[C@H]12)c1csc(N)n1 [Example 5, 7β-[(Z)-2-(2-Aminothiazol-4-yl)-2-methoxyiminoacetamido]-3-(4-carbamoyl-1-quinuclidinio)methyl-3-cephem-4-carboxylate] | – | 0.05 µg/mL (≈ 0.091 µM) | 12.5 µg/mL (≈ 22.7 µM) | 1.56 µg/mL (≈ 2.84 µM) | 0.1 µg/mL (≈ 0.182 µM) | 0.05 µg/mL (≈ 0.091 µM) | > 3000 mg/kg | 1.56 µg/mL (≈ 2.84 µM) | 100 µg/mL (≈ 182 µM)
CO/N=C(\C(=O)N[C@@H]1C(=O)N2C(C(=O)[O-])=C(C[N+]34CCC(C(N)=O)(CC3)CC4)CS[C@H]12)c1nsc(N)n1 [Example 6, 7β-[(Z)-2-(5-Amino-1,2,4-thiadiazol-3-yl)-2-methoxyiminoacetamido]-3-(4-carbamoyl-1-quinuclidinio)methyl-3-cephem-4-carboxylate] | – | 0.2 µg/mL (≈ 0.363 µM) | 3.13 µg/mL (≈ 5.68 µM) | 0.4 µg/mL (≈ 0.726 µM) | 0.1 µg/mL (≈ 0.182 µM) | 0.1 µg/mL (≈ 0.182 µM) | > 3000 mg/kg | 3.13 µg/mL (≈ 5.68 µM) | 25 µg/mL (≈ 45.4 µM)
CO/N=C(\C(=O)N[C@@H]1C(=O)N2C(C(=O)[O-])=C(C[N+]34CCC(CO)(CC3)CC4)CS[C@H]12)c1nsc(N)n1 [Example 14, 7β-[(Z)-2-(5-Amino-1,2,4-thiadiazol-3-yl)-2-methoxyiminoacetamido]-3-[4-hydroxymethyl-1-quinuclidinio]methyl-3-cephem-4-carboxylate] | – | 0.2 µg/mL (≈ 0.372 µM) | 3.13 µg/mL (≈ 5.82 µM) | 0.8 µg/mL (≈ 1.49 µM) | 0.1 µg/mL (≈ 0.186 µM) | 0.1 µg/mL (≈ 0.186 µM) | – | 1.56 µg/mL (≈ 2.9 µM) | 50 µg/mL (≈ 93 µM)
CO/N=C(\C(=O)N[C@@H]1C(=O)N2C(C(=O)[O-])=C(C[N+]34CCC(C)(CC3)CC4)CS[C@H]12)c1nsc(N)n1 [Example 15, 7β-[(Z)-2-(5-Amino-1,2,4-thiadiazol-3-yl)-2-methoxyiminoacetamido]-3-(4-methyl-1-quinuclidinio)methyl-3-cephem-4-carboxylate] | – | 0.2 µg/mL (≈ 0.383 µM) | 1.56 µg/mL (≈ 2.99 µM) | 0.8 µg/mL (≈ 1.53 µM) | 0.05 µg/mL (≈ 0.0959 µM) | 0.05 µg/mL (≈ 0.0959 µM) | – | 0.8 µg/mL (≈ 1.53 µM) | 50 µg/mL (≈ 95.9 µM)
